Legend:
[1] = tested on: HPK1 p-SLP-76 in Jurkat cells; experiment: HPK1 p-SLP-76 inhibition assay in Jurkat cells (HTRF); assay type: cell-based; conditions: Homo sapiens, 4 h compound, anti-CD3 stimulation 20 min
Description: Before compound treatment, Jurkat cells were starved in PRMI-1640 medium supplemented with 0.5% FBS overnight. The cell density was adjusted to 1*10^7 cells/mL in assay medium (RPMI-1640 no phenol red with 0.5% FBS) and 16 uL cell suspension was transferred per well to a 384-well plate (Corning #3765). […] of test compound was prepared in assay medium and 4 uL was added per well to the 384-well plate. The plate was then incubated at 37° C., 5% CO2 for 4 h. Jurkat cells in 384-well plate were stimulated with anti-CD3 (BD Biosciences #555329, final conc. is 10 ug/mL) for 20 min at 37° C., 5% CO2 by adding 4 uL 6× antibody solution per well. Phospho-SLP76 HTRF kit was purchased from Cisbio (63ADK076PEH). 8 uL 4× Lysis Buffer was added to 384-well plate after anti-CD3 stimulation. The plate was centrifuged at 1,000 rpm for 1 min, shaken at 250 rpm for 60 min and centrifuged again at 1,000 rpm for 5 min. Afterwards the cell lysates were transferred to the assay plate (Greiner #784075) with 16 uL per well. 4 uL detection antibody mix per well prepared in Detection Buffer was added to the assay plate, followed by centrifugation at 1,000 rpm for 1 min and incubation at 25° C. overnight. The fluorescence emission at two different wavelengths (665 nm and 620 nm) was read by an HTRF compatible microplate reader and the IC50 value of the compound was calculated.

HPK1 = target: T1, HPK1 (Homo sapiens, UniProt Q92918); experiment: HPK1 enzyme inhibition assay (ADP-Glo); assay type: biochemical; conditions: MBP substrate, ATP
T1 construct: purchased Signal Chem M23-11G-10
T1 sequence (Q92918 1-346 limits assumed): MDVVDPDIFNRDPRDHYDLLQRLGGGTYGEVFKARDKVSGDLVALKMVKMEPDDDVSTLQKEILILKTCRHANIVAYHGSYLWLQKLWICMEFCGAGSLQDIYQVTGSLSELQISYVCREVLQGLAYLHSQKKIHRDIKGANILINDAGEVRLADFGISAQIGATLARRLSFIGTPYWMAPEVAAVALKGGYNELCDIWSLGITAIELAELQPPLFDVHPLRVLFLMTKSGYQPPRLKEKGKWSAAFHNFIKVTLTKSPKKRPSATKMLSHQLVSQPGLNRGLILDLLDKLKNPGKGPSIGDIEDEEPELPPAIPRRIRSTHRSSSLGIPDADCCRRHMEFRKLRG
Description: The compound was dissolved in 100% DMSO at the concentration of 10 mM. The HPK1 protein was purchased from Signal Chem (M23-11G-10). 2.5 μL per well of 2×HPK1 protein was added to assay plate containing the test compound, centrifuged at 1500 rpm for 1 minute, and then incubated at 25° C. for 60 minutes. MBP protein was purchased from Signal Chem (M42-51N) and ATP was purchased from Promega (V9102). The two were added 2.5 μL per well mixture of 2×MBP (0.2 ug/ul) and ATP (20 μM), centrifuged at 1500 rpm for 1 minute, then incubated at 25° C. for 60 minutes. Then added 5 μL of ADP-Glo from Promega (V9102) to the assay plate and depleted the unconsumed ATP for 60 minutes. Then centrifuged at 1500 rpm for 1 minute and incubated at 25° C. for 60 minutes. Finally, 10 μL of the kinase assay reagent from Promega (V9102) was added to the assay plate to convert ADP to ATP, centrifuged at 1500 rpm for 1 minute, incubate at 25° C. for 40 minutes. After 40 minutes incubation, the […] was determined. Based on the results, the IC50 value of the compound was calculated.

Structure (SMILES) | IC50 [1] [nM] | IC50 (HPK1) [nM]
CCc1c[nH]c2ncc(-c3cccc(N4CCN(C(=O)CC[C@H](NC(=O)c5ccc(NCc6cnc7nc(N)[nH]c(=O)c7n6)cc5)C(=O)O)CC4=O)c3)c(Cl)c12 [Example 47, (S)-2-(4-(((2-amino-4-oxo-3,4-dihydropteridin-6-yl)methyl)amino)benzamido)-5-(4-(3-(4-chloro-3-ethyl-1H-pyrrolo[2,3-b]pyridin-5-yl)phenyl)-3-oxopiperazin-1-yl)-5-oxopentanoic acid] | > 10000 | 10 to 100
COCC(=O)N1CCN(c2cccc(-c3cnc4[nH]cc(C#Cc5ncn(C)n5)c4c3Cl)c2)C(=O)C1 [Example 36, 1-(3-(4-chloro-3-((1-methyl-1H-1,2,4-triazol-3-yl)ethynyl)-1H-pyrrolo[2,3-b]pyridin-5-yl)phenyl)-4-(2-methoxyacetyl)piperazin-2-one] | > 10000 | 10 to 100
CCc1c[nH]c2ncc(-c3cc(N4CCNCC4=O)ccc3CO)cc12 [Example 21, 1-(3-(3-ethyl-1H-pyrrolo[2,3-b]pyridin-5-yl)-4-(hydroxymethyl)phenyl)piperazin-2-one] | > 10000 | > 1000
CCc1c[nH]c2ncc(-c3cc(N4CCNCC4=O)ccc3CN(C)C)cc12 [Example 40, 1-(4-((dimethylamino)methyl)-3-(3-ethyl-1H-pyrrolo[2,3-b]pyridin-5-yl)phenyl)piperazin-2-one] | > 10000 | > 1000
CCc1c[nH]c2ncc(-c3csc(N4CCNCC4=O)n3)c(Cl)c12 [Example 10, 1-(4-(4-chloro-3-ethyl-1H-pyrrolo[2,3-b]pyridin-5-yl)thiazol-2-yl)piperazin-2-one] | 300 to 3000 | 10 to 100
O=C1CNCCN1c1cc(-c2cnc3[nH]cc(C4CC4)c3c2Cl)ccn1 [Example 18, 1-(4-(4-chloro-3-cyclopropyl-1H-pyrrolo[2,3-b]pyridin-5-yl)pyridin-2-yl)piperazin-2-one] | 3000 to 10000 | 10 to 100
CN(C)CCCS(=O)(=O)N1CCN(c2cccc(-c3cnc4[nH]cc(C5CC5)c4c3Cl)c2)C(=O)C1 [Example 56, 1-(3-(4-chloro-3-cyclopropyl-1H-pyrrolo[2,3-b]pyridin-5-yl)phenyl)-4-((3-(dimethylamino)propyl)sulfonyl)piperazin-2-one] | 300 to 3000 | ≤ 10
CCc1c[nH]c2ncc(-c3cc(N4CCNCC4=O)ccc3CNC)cc12 [Example 41, 1-(3-(3-ethyl-1H-pyrrolo[2,3-b]pyridin-5-yl)-4-((methylamino)methyl)phenyl)piperazin-2-one] | > 10000 | > 1000
O=C1CNCCN1c1cccc(-c2cnc3[nH]cc(CC(F)F)c3c2Cl)c1 [Example 12, 1-(3-(4-chloro-3-(2,2-difluoroethyl)-1H-pyrrolo[2,3-b]pyridin-5-yl)phenyl)piperazin-2-one] | 300 to 3000 | ≤ 10
CCc1c[nH]c2ncc(-c3cccc(N4CCC[C@@H](CO)C4=O)c3)c(Cl)c12 [Example 24, (S)-1-(3-(4-chloro-3-ethyl-1H-pyrrolo[2,3-b]pyridin-5-yl)phenyl)-3-(hydroxymethyl)piperidin-2-one] | 300 to 3000 | ≤ 10
CCc1c[nH]c2ncc(-c3cc(N4CCNCC4=O)ccc3F)c(Cl)c12 [Example 17, 1-(3-(4-chloro-3-ethyl-1H-pyrrolo[2,3-b]pyridin-5-yl)-4-fluorophenyl)piperazin-2-one] | 300 to 3000 | 10 to 100
CCc1c[nH]c2ncc(-c3cccc(N4CCNCC4=O)c3)c(Cl)c12 [Example 1, 1-(3-(4-chloro-3-ethyl-1H-pyrrolo[2,3-b]pyridin-5-yl)phenyl)piperazin-2-one] | 300 to 3000 | ≤ 10
CCc1c[nH]c2ncc(-c3cccc(N4CCN(C(=O)OC)CC4=O)c3)c(Cl)c12 [Example 27, Methyl 4-(3-(4-chloro-3-ethyl-1H-pyrrolo[2,3-b]pyridin-5-yl)phenyl)-3-oxopiperazine-1-carboxylate] | ≤ 300 | ≤ 10
COCCN1CCN(c2cccc(-c3cnc4[nH]cc(C5CC5)c4c3Cl)c2)C(=O)C1 [Example 39, 1-(3-(4-chloro-3-cyclopropyl-1H-pyrrolo[2,3-b]pyridin-5-yl)phenyl)-4-(2-methoxyethyl)piperazin-2-one] | 300 to 3000 | ≤ 10
CCc1c[nH]c2ncc(-c3cccc(N4CCN(C(=O)[C@@H](N)C(C)C)CC4=O)c3)c(Cl)c12 [Example 42, 4-(L-valyl)-1-(3-(4-chloro-3-ethyl-1H-pyrrolo[2,3-b]pyridin-5-yl)phenyl)piperazin-2-one] | 3000 to 10000 | 10 to 100
CCc1c[nH]c2ncc(-c3cccc(N4CCNCC4=O)n3)c(Cl)c12 [Example 9, 1-(6-(4-chloro-3-ethyl-1H-pyrrolo[2,3-b]pyridin-5-yl)pyridin-2-yl)piperazin-2-one] | 300 to 3000 | ≤ 10
COCC(=O)N1CCN(c2cccc(-c3cnc4[nH]cc(C5CC5)c4c3Cl)c2)C(=O)C1 [Example 32, 1-(3-(4-chloro-3-cyclopropyl-1H-pyrrolo[2,3-b]pyridin-5-yl)phenyl)-4-(2-methoxyacetyl) piperazin-2-one] | ≤ 300 | ≤ 10
